Where a name gives a salt, the structure may show the parent alone.
Test system: Jurkat cells
Assay: Jurkat cell proliferation, compound alone or combined with bleomycin, living cells counted by MTS method
Type: cell-based
Set-up: key: ++ indicates observation of remarkable enhancement; + indicates moderated enhancement
Conditions: enhancement of the decrease in Jurkat cell survival rate by bleomycin 5 μg/ml or 10 μg/ml, 36 hours incubation
Method: By using the compounds synthesized above, effects on proliferation of Jurkat cells by sole administration and inhibitory effects on cell proliferation by administration in combination with bleomycin were examined. Materials and methods are as follows. Jurkat cells obtained from Dainippon Pharmaceutical Co. Ltd. were inoculated at about 10,000 cells per well in a 96 well culture plate, and incubated in 10% bovine fetal serum (Irvine Scientific) supplemented with RPMI1640(ICN) medium in 5% CO2 incubator at 37° C. […] 36 hours after the incubation, the number of living cells was counted by the MTS method.
More specifically, 20 μl of CellTiter96™ AQueous One Solution (Promega) was added per one well, and after the cells were incubated for additional one hour, an absorbance at 490 nm was measured by using a microplate reader. The same culture added with DMSO as a solvent at final concentration of 0.25% was used as a control. The number of cells in the control was considered as 100% survival rate, and for each compound, survival rates by sole administration or a combined administration were calculated.

Molecule | Activity
5-amino-N-[(2-fluorophenyl)methyl-1-naphthalenesulfonamide hydrochloride [Compound 9] | +
5-amino-N-[[[4′-methyl-1,1′-biphenyl]-2-yl]methyl]-1-naphthalenesulfonamide hydrochloride [Compound 23] | +
Nc1cccc2c(S(=O)(=O)NCc3cccc4ccccc34)cccc12 [Compound 1, 5-amino-N-[(1-naphthalenyl)methyl]-1-naphthalenesulfonamide hydrochloride] | +
Nc1cccc2c(S(=O)(=O)NCc3ccccc3Cl)cccc12 [Compound 3, 5-amino-N-[(2-chlorophenyl)methyl]-1-naphthalenesulfonamide hydrochloride] | +
Nc1cccc2c(S(=O)(=O)NCc3ccc(Cl)cc3)cccc12 [Compound 5, 5-amino-N-[(4-chlorophenyl)methyl]-1-naphthalenesulfonamide hydrochloride] | +
Nc1cccc2c(S(=O)(=O)NCc3ccc(Cl)cc3Cl)cccc12 [Compound 6, 5-amino-N-[(2,4-dichlorophenyl)methyl]-1-naphthalenesulfonamide hydrochloride] | ++
Nc1cccc2c(S(=O)(=O)NCc3c(F)cccc3F)cccc12 [Compound 12, 5-amino-N-[(2,6-difluorophenyl)methyl]-1-naphthalenesulfonamide hydrochloride] | ++
Nc1cccc2c(S(=O)(=O)NCc3cc(F)cc(F)c3)cccc12 [Compound 14, 5-amino-N-[(3,5-difluorophenyl)methyl]-1-naphthalenesulfonamide hydrochloride] | +
Cc1ccccc1CNS(=O)(=O)c1cccc2c(N)cccc12 [Compound 15, 5-amino-N-[(2-methylphenyl)methyl]-1-naphthalenesulfonamide hydrochloride] | +
CC(C)(C)c1ccc(CNS(=O)(=O)c2cccc3c(N)cccc23)cc1 [Compound 18, 5-amino-N-[[4-(1,1-dimethylethyl)phenyl]methyl]-1-naphthalenesulfonamide hydrochloride] | ++
Nc1cccc2c(S(=O)(=O)NCc3ccccc3C(F)(F)F)cccc12 [Compound 19, 5-amino-N-[[2-(trifluoromethyl)phenyl]methyl]-1-naphthalenesulfonamide hydrochloride] | ++
Nc1cccc2c(S(=O)(=O)NCc3ccc(C(F)(F)F)cc3)cccc12 [Compound 21, 5-amino-N-[[4-(trifluoromethyl)phenyl]methyl]-1-naphthalenesulfonamide hydrochloride] | ++
COc1ccccc1CNS(=O)(=O)c1cccc2c(N)cccc12 [Compound 24, 5-amino-N-[(2-methoxyphenyl)methyl]-1-naphthalenesulfonamide hydrochloride] | ++
COc1cccc(CNS(=O)(=O)c2cccc3c(N)cccc23)c1 [Compound 25, 5-amino-N-[(3-methoxyphenyl)methyl]-1-naphthalenesulfonamide hydrochloride] | ++
COc1ccc(CNS(=O)(=O)c2cccc3c(N)cccc23)cc1 [Compound 26, 5-amino-N-[(4-methoxyphenyl)methyl]-1-naphthalenesulfonamide hydrochloride] | +
COc1cccc(CNS(=O)(=O)c2cccc3c(N)cccc23)c1OC [Compound 28, 5-amino-N-[(2,3-dimethoxyphenyl)methyl]-1-naphthalenesulfonamide hydrochloride] | ++
COc1cc(CNS(=O)(=O)c2cccc3c(N)cccc23)cc(OC)c1 [Compound 31, 5-amino-N-[(3,5-dimethoxyphenyl)methyl]-1-naphthalenesulfonamide hydrochloride] | ++
Nc1cccc2c(S(=O)(=O)NCc3cccc(OCc4ccccc4)c3)cccc12 [Compound 35, 5-amino-N-[[3-(phenylmethoxy)phenyl]methyl]-1-naphthalenesulfonamide hydrochloride] | +
Nc1cccc2c(S(=O)(=O)NCc3ccc(OCc4ccccc4)cc3)cccc12 [Compound 36, 5-amino-N-[[4-(phenylmethoxy)phenyl]methyl]-1-naphthalenesulfonamide hydrochloride] | +
Nc1cccc2c(S(=O)(=O)NCc3cccc(O)c3)cccc12 [Compound 38, 5-amino-N-[(3-hydroxyphenyl)methyl]-1-naphthalenesulfonamide hydrochloride] | +
Nc1cccc2c(S(=O)(=O)NCc3cccc([N+](=O)[O-])c3)cccc12 [Compound 41, 5-amino-N-[(3 nitrophenyl)methyl]-1-naphthalenesulfonamide hydrochloride] | ++
Nc1cccc2c(S(=O)(=O)NCc3ccc([N+](=O)[O-])cc3)cccc12 [Compound 42, 5-amino-N-[(4-nitrophenyl)methyl]-1-naphthalenesulfonamide hydrochloride] | ++
Nc1ccccc1CNS(=O)(=O)c1cccc2c(N)cccc12 [Compound 43, 5-amino-N-[(2-aminophenyl)methyl]-1-naphthalenesulfonamide dihydrochloride] | +
Nc1cccc(CNS(=O)(=O)c2cccc3c(N)cccc23)c1 [Compound 44, 5-amino-N-[(3-aminophenyl)methyl]-1-naphthalenesulfonamide dihydrochloride] | +
Nc1cccc2c(S(=O)(=O)NCc3ccc(C(=O)O)cc3)cccc12 [Compound 48, 4-[[[(5-amino-1-naphthalenyl)sulfonyl]-amino]methyl]benzoic acid hydrochloride] | +
Nc1cccc2c(S(=O)(=O)NCc3ccccn3)cccc12 [Compound 53, 5-amino-N-(2-pyridinylmethyl)-1-naphthalenesulfonamide dihydrochloride] | +
CC(NS(=O)(=O)c1cccc2c(N)cccc12)c1ccccc1 (stereo not drawn) [Compound 55, 5-amino-N-(1-phenylethyl)-1-naphthalenesulfonamide] | +
CC(NS(=O)(=O)c1cccc2c(N)cccc12)c1cccc2ccccc12 (stereo not drawn) [Compound 56, 5-amino-N-[1-(1-naphthalenyl)ethyl]-1-naphthalenesulfonamide hydrochloride] | +
Nc1cccc2c(S(=O)(=O)NC3CCCc4ccccc43)cccc12 (stereo not drawn) [Compound 58, 5-amino-N-(1,2,3,4-tetrahydro-1-naphthalenyl)-1-naphthalenesulfonamide] | +
Nc1cccc2c(S(=O)(=O)Nc3ccccc3)cccc12 [Compound 64, 5-amino-N-phenyl-1-naphthalenesulfonamide hydrochloride] | +

Source: US7547716B2, “Sulfonamide derivatives” (Institute of Medicinal Molecular Design, Inc., priority 2001, dated 2009)
